Results from patent publication US6852735B1, “Siastatin B derivatives having a glycosidase inhibitory activity and processes for producing the same” (Zaidan Hojin Biseibutsu Kagaku Kenkyu Kai, priority 1998, dated 2005).

Columns and labels:
[1] = biological target: T1, β-D-galactosidase (from Aspergillus niger) (Aspergillus niger, UniProt P29853); experiment: β-galactosidase inhibition (Test Example 3); format: biochemical; settings: for inhibition of β-D-galactosidase, in words: summary of Table 1
T1 construct: originated from Aspergillus niger; purchased Sigma Company; host or cells: Aspergillus niger
T1 sequence (P29853 20-1006): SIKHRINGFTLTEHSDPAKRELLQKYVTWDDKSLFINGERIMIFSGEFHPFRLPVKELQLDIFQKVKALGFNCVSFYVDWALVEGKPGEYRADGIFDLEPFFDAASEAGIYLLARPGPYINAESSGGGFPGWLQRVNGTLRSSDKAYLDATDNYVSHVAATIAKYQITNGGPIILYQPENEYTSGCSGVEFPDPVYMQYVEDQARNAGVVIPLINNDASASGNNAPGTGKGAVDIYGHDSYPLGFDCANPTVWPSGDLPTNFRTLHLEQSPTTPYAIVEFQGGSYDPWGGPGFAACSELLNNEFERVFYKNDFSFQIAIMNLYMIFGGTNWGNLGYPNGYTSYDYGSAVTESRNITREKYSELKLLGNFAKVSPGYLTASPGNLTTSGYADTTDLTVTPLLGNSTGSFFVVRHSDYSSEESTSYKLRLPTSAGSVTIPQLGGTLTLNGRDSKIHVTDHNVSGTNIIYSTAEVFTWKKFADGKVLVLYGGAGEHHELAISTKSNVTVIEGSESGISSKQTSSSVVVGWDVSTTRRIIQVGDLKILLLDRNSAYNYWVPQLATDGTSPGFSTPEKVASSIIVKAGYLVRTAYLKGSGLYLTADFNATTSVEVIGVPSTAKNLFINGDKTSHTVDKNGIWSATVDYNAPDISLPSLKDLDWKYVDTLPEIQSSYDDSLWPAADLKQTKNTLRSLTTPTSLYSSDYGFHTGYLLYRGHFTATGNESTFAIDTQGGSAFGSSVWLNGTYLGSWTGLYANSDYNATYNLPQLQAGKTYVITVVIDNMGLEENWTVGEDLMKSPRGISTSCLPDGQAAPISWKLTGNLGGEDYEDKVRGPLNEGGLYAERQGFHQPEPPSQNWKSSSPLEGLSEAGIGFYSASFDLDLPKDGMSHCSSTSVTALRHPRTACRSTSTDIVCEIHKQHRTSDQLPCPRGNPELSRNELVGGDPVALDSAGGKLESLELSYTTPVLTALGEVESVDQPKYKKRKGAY
Experimental: (§1) Thus, 0.5 mL of 0.025M citrate-phosphate buffer (pH 4.0), 0.1 mL of the same buffer containing 10 mM p-nitro-phenyl-N-acetyl-α-D-galactosaminide dissolved therein, and 0.1 mL of either water or an aqueous solution containing as the test compound any one of the compounds of the formulae (I), (V) and (X) according to this invention were mixed with each other and pre-incubated in a 96-wells titer plate at 37° C. for 10 minutes. After the completion of the pre-incubation, to the pre-incubated mixture was added 0.01 mL of 0.025 M citrate-phosphate buffer containing α-N-acetyl-galactosaminidase originated from chicken liver (a product of Sigma Company) which was dissolved in said buffer as a glycosidase to be tested. Thereafter, the enzymatic reaction was conducted at 37° C. for 30 minutes.
(§2) After the enzymatic reaction, to the reaction solution was added 1.0 mL of 0.3M glycine—sodium hydroxide buffer (pH 10.5), in order to terminate the enzymatic reaction. Thereafter, the absorbance [designated as value (a)] of light at 405 nm of the resulting reaction solution was measured. Concurrently, measurement was made of the absorbance [designated as value (b)] at 405 nm of the reaction solution as obtained in the control test where the enzymatic reaction was conducted without addition of the test compound. Further, measurements were made of the absorbance [designated as values (a′)] and the absorbance [[designated as values (b′)] at 405 nm of the solutions as obtained in the blank test and the control test, respectively, where the enzymatic reaction was not conducted in the assay test. The rate of inhibition to […] was calculated by the equation: [1-(a-a′)/(b-b′)]×100.
(§3) The test results obtained are summarized as IC50 value in Table 1 below.
This Test Example is a test example for determining the α-galactosidase or β-galactosidase-inhibitory activity of the compound of the formula (I), (V) or (X) according to this invention.
The evaluation of the α-galactosidase or β-galactosidase-inhibitory activity was conducted according to a modification of the method described in the “Journal of Biological Chemistry”, 240, p.2468 (1965).
Namely, the test was conducted in the same manner as the test for the enzyme-inhibitory activity described in Test Example 1, but with using α-galactosidase or β-galactosidase (products of by Sigma Company) originated from Aspergillus niger, as the glycosidase enzyme, and with using p-nitrophenyl-α-D-galactoside and p-nitrophenyl-β-D-galactoside as the substrate. Furthermore, absorbances of light at 405 nm were measured in the same manner as in Test Example 1. IC50 values of the test compound capable of giving the 50% inhibition to the enzymes were calculated.

[2] = test system: β-D-glucosidase (from almond); experiment: β-glucosidase inhibition (Test Example 4); format: biochemical; settings: for inhibition of β-D-glucosidase, in words: summary of Table 1; for 50% inhibiory concentration (IC50) Enzyme E: β-D-glucosidase from almond, substrate p-nitrophenyl-β-D-glucoside
Experimental: as §1, §2, §3
This Test Example is a test example for determining the α-glucosidase or β-glucosidase-inhibitory activity of the compound of the formula (I), (V) or (X) according to this invention.
The evaluation of the β-glucosidase-inhibitory activity was conducted according to a modification of the method described in the “Agricultural and Biological Chemistry”, 26, p.203 (1962).
Namely, the test was conducted in the same manner as the test for the enzyme-inhibitory activity described in Test Example 1, but with using α-glucosidase originated from yeast or β-glucosidase originated from almond (both enzymes are products of Sigma Company) as the glycosidase enzyme, and with using p-nitro-phenyl-α-D-glucoside or p-nitrophenyl-β-D-glucoside as the substrate. Furthermore, absorbances of light were measured in the same manner as in Test Example 1, and IC50 values of the test compound capable of giving the 50% inhibition to the enzyme were calculated.

## O=C(N[C@H]1NC[C@H](CO)[C@H](O)[C@@H]1O)C(F)(F)F [Formula (I), 6-deacetamido-3-decarboxy-3-hydroxymethyl-6-trifluoroacetamido-siastain B]
[1]
  IC50: 0.194 µM
  inhibition of β-D-galactosidase, in words: inhibit strongly
[2]
  inhibition of β-D-glucosidase, in words: inhibit strongly
  50% inhibiory concentration (IC50) Enzyme E: 0.14 mg/L

## CC(=O)NC1NCC(CO)C(O)C1O (stereo not drawn) [Formula (V), 3-decarboxy-4-epi-3-hydroxymethyl-siastain B]
[1]
  IC50: > 490 µM
[2]
  inhibition of β-D-glucosidase, in words: inhibit strongly
  50% inhibiory concentration (IC50) Enzyme E: 1.4 mg/L

## O=C(N[C@H]1NC[C@H](CO)[C@@H](O)[C@@H]1O)C(F)(F)F [Formula (X), 6-deacetamido-3-decarboxy-4-epi-3-hydroxymethyl-6-trifluoroacetamido-siastain B]
[1]
  IC50: 232 µM
  inhibition of β-D-galactosidase, in words: inhibit strongly
[2]
  inhibition of β-D-glucosidase, in words: inhibit strongly
  50% inhibiory concentration (IC50) Enzyme E: 0.13 mg/L
